This is an account of results in patent US20100075978A1, “SULFONAMIDE DERIVATIVES AS BRADYKININ ANTAGONISTS” (priority 2006, published 2010).

Counter-ions that a name gives are not always drawn. Like-named read-outs stand apart in the source and are kept apart here.

In test [1] the target is T1, recombinant human B1 receptors (Homo sapiens, UniProt P46663).
T1 construct: host or cells: CHO (CHO-B1)
T1 sequence (P46663 1-353): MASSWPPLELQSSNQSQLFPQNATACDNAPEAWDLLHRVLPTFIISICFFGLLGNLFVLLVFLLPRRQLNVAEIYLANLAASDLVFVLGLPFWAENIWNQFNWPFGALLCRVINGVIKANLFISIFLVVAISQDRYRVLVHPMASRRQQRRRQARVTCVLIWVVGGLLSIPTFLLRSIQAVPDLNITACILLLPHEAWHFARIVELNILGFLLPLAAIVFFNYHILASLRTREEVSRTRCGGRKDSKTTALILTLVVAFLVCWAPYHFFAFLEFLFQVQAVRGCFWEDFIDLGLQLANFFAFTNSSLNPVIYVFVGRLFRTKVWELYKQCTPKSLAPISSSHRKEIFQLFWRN
As to the kind of experiment: Functional assay: cytosolic calcium ion concentration measured with plate reader fluorimeter in CHO-B1 cells, agonist LysDABK. The class given is cell-based. How it is done: Assessment of Antagonist Potency at B1 and B2 Receptors In Vitro by Measurement of Cytosolic Calcium Ion Concentration with a Plate Reader Fluorimeter in Cells Expressing Recombinant Human B1 or B2 Receptors
Chinese hamster ovary (CHO) cells stably expressing recombinant human B1 (CHO-B1, Euroscreen) or B2 (CHO-B2, Perkin-Elmer) receptors were cultured in Dulbecco's Modified Eagle's Medium (DMEM) containing 10% Fetal Calf Serum (FCS), 100 U/ml penicillin, 0.1 mg/ml streptomycin, 0.25 μg/ml amphotericin B, 1% Minimum Essential Medium Eagle (MEM), non essential amino acid solution, 600 μg/ml G418, 1% pyruvate (for the B2 cell line). Cells were kept at 37° C. in a humidified incubator in an atmosphere of 5% CO2/95% air and were passaged 1:4 three times a week. Cells were plated at 1.5-2.5×10^4 cell/well on standard 96-well microplates, measurements of cytosolic calcium ion concentration ([Ca^2+]i) were carried out 1-2 days after cell plating.
Measurements of [Ca^2+]i were carried out on CHO-B1 and CHO-B2 cells stably expressing human B1 and B2 receptors, respectively. Cells were grown in standard 96-well microplates and before the measurement were loaded with a fluorescent Ca^2+-sensitive dye, fluo-4/AM (2 μM): after removing the culture medium the dye was added to the cells (dissolved in assay buffer: 145 mM NaCl, 5 mM KCl, 2 mM MgCl2, 2 mM CaCl2, 10 mM HEPES, 20 mM D-glucose, 2 mM probenecid, 100 μl/well) and cells were incubated at 37° C. in a humidified incubator in an atmosphere of 5% CO2/95% air for 40-120 min. To stop dye loading cells were washed twice with assay buffer. After washing, various concentrations of the test compounds (diluted in extracellular medium from a DMSO stock solution, final DMSO concentration was <0.1%) or buffer were added to each well depending on the experimental setup. After incubation at 37° C. for 20-25 min. baseline and agonist-evoked changes of [Ca^2+]i were measured column by column with a plate reader fluorimeter (Fluoroskan Ascent, Labsystems). Excitation and detection of emission was carried out from the bottom of the plate. Filters used for Fluo-4: excitation filter—485 nm, emission filter—538 nm. The whole measurement process was performed at 37° C. and was controlled by custom software. Inhibitory potency of the test compounds was assessed by measuring the reduction in the agonist-evoked [Ca^2]i-elevation in the presence of different concentrations of the compounds. The agonists were LysDABK for CHO-B1, and bradykinin for CHO-B2 cells. Agonists were applied at an EC80 concentration, the EC80-values were derived from daily determined dose-response curves. Fluorescence data were expressed as ΔF/F (fluorescence change normalized to baseline). All treatments on a single plate were measured in multiple wells. Data from all wells with the same treatment were averaged and the average values were used for analysis. Inhibitory potency of a compound at a single concentration point was expressed as percent inhibition of the control agonist response. Sigmoidal concentration-inhibition curves were fitted to the data (derived from at least three independent experiments) and IC50-values were determined as the concentration that produces half of the maximal inhibition caused by the compound.

Test [2] addresses T2, human recombinant bradykinin B1 receptor (Homo sapiens, UniProt P46663).
T2 construct: purchased Euroscreen ES-091; host or cells: CHO cells
T2 sequence (P46663 1-353): T1 sequence (P46663 1-353)
As to the kind of experiment: Human recombinant bradykinin B1 receptor binding. As to the method: 1. Human Recombinant Bradykinin B1 Receptor Binding
Binding assays were carried out on human recombinant bradykinin) receptors (expressed in CHO cells) according to the Euroscreen Technical Data Sheet (Cat.No.:ES-091). 20 μg protein/tube was incubated with [3,4-prolyl-3,4-^3H(N)]-[Des-Arg^10] Kallidin as radioligand. Non specific binding was determined in the presence of 10 μM Lys-des-Arg^9-Bradykinin. The final incubation volume was 250 μl. Samples were incubated for 15 min. at 25° C. then were rapidly vacuum filtered through GF/B filters presoaked for at least 1 h in 0.5% PEI. Radioactivity was determined by liquid scintillation spectroscopy.

The mark [3] stands for this setting: CHO-B1 cells, LysDABK at EC80, [Ca2+]i, read-out: B1 func.
[4] abbreviates: radioligand [3H]-[Des-Arg10] Kallidin, CHO cell membranes, read-out: B1 binding.
[5] abbreviates: reference compounds, functional test, read-out: IC50.
Setting [6] is: reference compounds, binding test, read-out: Ki.

As for `O=C(NCCN1CCN(c2ccccn2)CC1)c1ccc(S(=O)(=O)Nc2ccccc2Oc2ccc(Cl)cc2Cl)cc1` [Example 20, 4-[2-(2,4-Dichloro-phenoxy)-phenylsulfamoyl]-N-[2-(4-pyridin-2-yl-piperazin-1-yl)-ethyl]-benzamide trifluoroacetate], in test [1] (setting [3]), the IC50 lay within 20 to 100 nM. In addition, the Ki in test [2] (setting [4]) was in the range of 20 to 100 nM.

As for `O=C(NCCC(=O)N1CCC(N2CCCCC2)CC1)c1ccc(S(=O)(=O)Nc2ccccc2Oc2ccc(Cl)cc2Cl)cc1` [Example 62, N-(3-[1,4′]Bipiperidinyl-1′-yl-3-oxo-propyl)-4-[2-(2,4-dichloro-phenoxy)-phenylsulfamoyl]-benzamide trifluoroacetate], in test [1] (setting [3]), the IC50 was less than 20 nM. Besides, the Ki in test [2] (setting [4]) was less than 20 nM.

Regarding `O=C(Nc1ccc(N2CCC(N3CCCCC3)CC2)cc1)c1ccc(S(=O)(=O)Nc2ccccc2Oc2ccc(C(F)(F)F)cc2)cc1` [Example 127, N-(4-[1,4′]Bipiperidinyl-1′-yl-phenyl)-4-[2-(4-trifluoromethyl-phenoxy)-phenylsulfamoyl]-benzamide], the IC50 in test [1] (setting [3]) was less than 20 nM. In addition, in test [2] (setting [4]), the Ki is 20 to 100 nM.

As for `O=C(NCCN1CCN(c2cnccn2)CC1)c1ccc(S(=O)(=O)Nc2ccccc2Oc2ccc(Br)cc2Cl)cc1` [Example 159, 4-[2-(4-Bromo-2-chloro-phenoxy)-phenylsulfamoyl]-N-[2-(2,3,5,6-tetrahydro-[1,2′]bipyrazinyl-4-14)-ethyl]-benzamide], the IC50 in test [1] (setting [3]) is 20 to 100 nM. Also, the Ki in test [2] (setting [4]) fell in the range of 20 to 100 nM.

On to `O=C(CCNC(=O)c1ccc(S(=O)(=O)Nc2ccccc2Oc2ccc(Cl)cc2Cl)cc1)NCC1CCNCC1` [Example 37, 4-[2-(2,4-Dichloro-phenoxy)-phenylsulfamoyl]-N-{2-[(piperidin-4-ylmethyl)-carbamoyl]-ethyl}-benzamide acetate/hydrochloride mixed salt], for which the IC50 in test [1] (setting [3]) lay within 20 to 100 nM. Besides, in test [2] (setting [4]), the Ki lay in the range of 20 to 100 nM.

Consider `O=C(NCCC1CCNCC1)c1ccc(S(=O)(=O)Nc2ccccc2Oc2ccc(Cl)cc2Cl)cc1` [Example 11, 4-[2-(2,4-Dichloro-phenoxy)-phenylsulfamoyl]-N-(2-piperidin-4-ylethyl)-benzamide trifluoroacetate], for which, in test [1] (setting [3]), the IC50 was 20 to 100 nM. Besides, the Ki in test [2] (setting [4]) fell in the range of 20 to 100 nM.

Take `CCCN1C(=O)[C@H](NC(=O)Nc2ccc(N3CCN(c4ccncc4)CC3)cc2)N=C(CCc2ccccc2)c2ccccc21` [compound 2, (R)—N-[2,3-dihydro-2-oxo-5-(2-phenyl-ethyl)-1-propyl-1H-1,4-benzodiazepin-3-yl]-N′-{4-[4-(4-pyridinyl)-1-piperazinyl]-phenyl}-urea, reference compound]: the IC50 in test [1] (setting [5]) turned out to be 1.9 nM. Besides, in test [2] (setting [6]), the Ki amounted to 0.59 nM.

Turning to `O=C(NCCCN1CCC(N2CCCCC2)CC1)c1ccc(S(=O)(=O)Nc2ccccc2Oc2ccc(Br)cc2)cc1` [Example 111, N-(3-[1,4′]Bipiperidinyl-1′-yl-propyl)-4-[2-(4-bromo-phenoxy)-phenylsulfamoyl]-benzamide], the IC50 in test [1] (setting [3]) is less than 20 nM. In addition, the Ki in test [2] (setting [4]) was less than 20 nM.

For `O=C(NCCc1ccc(C2=NCCN2)cc1)c1ccc(S(=O)(=O)Nc2ccccc2Oc2ccc(Cl)cc2)cc1` [Example 6, 4-[2-(4-Chloro-phenoxy)-phenylsulfamoyl]-N-{2-[4-(4,5-dihydro-1H-imidazol-2-yl)-phenyl]-ethyl}-benzamide], in test [1] (setting [3]), the IC50 is less than 20 nM. The Ki in test [2] (setting [4]) is less than 20 nM.

Regarding `CCCN1C(=O)[C@H](NC(=O)Nc2ccc(N3CCC(N4CCCCC4)CC3)cc2)N=C(c2ccc(C)cc2)c2ccccc21` [compound 3, N-[4-(,4′-bipiperidin)-1′-ylphenyl]-N′-[(3R)-2,3-dihydro-5-(4-methyl-phenyl)-2-oxo-1-propyl-1H-1,4-benzodiazepin-3-yl]-urea, reference compound], in test [1] (setting [5]), the IC50 was 64.5 nM. Moreover, the Ki in test [2] (setting [6]) came to 13.4 nM.

With `O=C(NCCCN1CCC(N2CCCCC2)CC1)c1ccc(S(=O)(=O)Nc2ccccc2Oc2ccc(Cl)cc2Cl)cc1` [Example 3, N-(3-[1,4′]Bipiperidinyl-1′-yl-propyl)-4-[2-(2,4-dichloro-phenoxy)-phenylsulfamoyl]-benzamide], the IC50 in test [1] (setting [3]) was less than 20 nM. The Ki in test [2] (setting [4]) is less than 20 nM.

As for `O=C(NCCNC(=O)C1CCNCC1)c1ccc(S(=O)(=O)Nc2ccccc2Oc2ccc(Cl)cc2Cl)cc1` [Example 29, Piperidine-4-carboxylic acid (2-{4-[2-(2,4-dichloro-phenoxy)-phenylsulfamoyl]-benzoylamino}-ethyl)-amide hydrochloride], the IC50 in test [1] (setting [3]) lay in the range of 20 to 100 nM. In addition, the Ki in test [2] (setting [4]) was in the range of 20 to 100 nM.

Consider `O=C(NCCCN1CCC(N2CCCCC2)CC1)c1ccc(S(=O)(=O)Nc2ccccc2Oc2ccc(C(F)(F)F)cc2)cc1` [Example 129, N-(3-[1,4′]Bipiperidinyl-1′-yl-propyl)-4-[2-(4-trifluoromethyl-phenoxy)-phenylsulfamoyl]-benzamide], for which the IC50 in test [1] (setting [3]) was 20 to 100 nM. Also, in test [2] (setting [4]), the Ki lay in the range of 20 to 100 nM.

As to `O=C(NCCCCC1CCNCC1)c1ccc(S(=O)(=O)Nc2ccccc2Oc2ccc(Cl)cc2Cl)cc1` [Example 170, 4-[2-(2,4-Dichloro-phenoxy)-phenylsulfamoyl]-N-(4-piperidin-4-yl-butyl)-benzamide hydrochloride], the IC50 in test [1] (setting [3]) was less than 20 nM. Also, the Ki in test [2] (setting [4]) was less than 20 nM.

For `O=C(CCNC(=O)c1ccc(S(=O)(=O)Nc2ccccc2Oc2ccc(Cl)cc2Cl)cc1)NC1CCNCC1` [Example 33, 4-[2-(2,4-Dichloro-phenoxy)-phenylsulfamoyl]-N-[2-(piperidin-4-ylcarbamoyl)-ethyl]-benzamide acetate], in test [1] (setting [3]), the IC50 was 20 to 100 nM. The Ki in test [2] (setting [4]) lay within 20 to 100 nM.

`O=C(NCCN1CCN(c2ccncc2)CC1)c1ccc(S(=O)(=O)Nc2ccccc2Oc2ccc(Cl)cc2Cl)cc1` [Example 1, 4-[2-(2,4-Dichloro-phenoxy)-phenylsulfamoyl]-N-{2-[4-pyridin-4-yl-piperazin-1-yl)-ethyl]-benzamide dihydrochloride]: the IC50 in test [1] (setting [3]) was less than 20 nM. The Ki in test [2] (setting [4]) is less than 20 nM.

Consider `O=C(Nc1ccc(N2CCC(N3CCCCC3)CC2)cc1)c1ccc(S(=O)(=O)Nc2ccccc2Oc2ccc(Br)cc2Cl)cc1` [Example 169, N-(4-[1,4′]Bipiperidinyl-1′-yl-phenyl)-4-[2-(4-bromo-2-chloro-phenoxy)-phenylsulfamoyl]-benzamide], for which the IC50 in test [1] (setting [3]) is less than 20 nM. Also, the Ki in test [2] (setting [4]) is less than 20 nM.

With `O=C(N[C@H]1CC[C@H](CCN2CCCC2)CC1)c1ccc(S(=O)(=O)Nc2ccccc2Oc2ccc(F)cc2Cl)cc1` [Example 121, trans-4-[2-(2-Chloro-4-fluoro-phenoxy)-phenylsulfamoyl]-N-[4-(2-pyrrolidin-1-yl-ethyl)-cyclohexyl]-benzamide], the IC50 in test [1] (setting [3]) is 20 to 100 nM. Also, the Ki in test [2] (setting [4]) fell in the range of 20 to 100 nM.
